Measurements reported in PubChem BioAssay (NCI).
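How tested: cells in 96-well plates exposed to compound for 48 hours at five concentrations. GI50: concentration for 50% inhibition of growth. The concentration for full growth arrest is given as TGI.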

What was measured:
Test in all cases: inhibition of tumour cell growth, NCI panel, 48 h
KM12 colon = test system: KM12 colon
MDA-MB-435 = test system: MDA-MB-435
HOP-92 NSCLC = test system: HOP-92 NSCLC
CCRF-CEM leukemia = test system: CCRF-CEM leukemia
UO-31 renal = test system: UO-31 renal
ACHN renal = test system: ACHN renal
SW-620 colon = test system: SW-620 colon
HCC-2998 colon = test system: HCC-2998 colon
MDA-MB-231 breast = test system: MDA-MB-231 breast
EKVX NSCLC = test system: EKVX NSCLC
PC-3 prostate = test system: PC-3 prostate
MOLT-4 leukemia = test system: MOLT-4 leukemia
A549 NSCLC = test system: A549 NSCLC
M14 melanoma = test system: M14 melanoma
RPMI-8226 leukemia = test system: RPMI-8226 leukemia
UACC-257 melanoma = test system: UACC-257 melanoma
CAKI-1 renal = test system: CAKI-1 renal
SK-MEL-5 melanoma = test system: SK-MEL-5 melanoma
TK-10 renal = test system: TK-10 renal
SR leukemia = test system: SR leukemia
786-0 renal = test system: 786-0 renal
NCI-H522 lung = test system: NCI-H522 lung
IGROV1 ovarian = test system: IGROV1 ovarian
OVCAR-5 ovarian = test system: OVCAR-5 ovarian
NCI-H226 lung = test system: NCI-H226 lung
OVCAR-3 ovarian = test system: OVCAR-3 ovarian
UACC-62 melanoma = test system: UACC-62 melanoma
NCI-H460 lung = test system: NCI-H460 lung
DU-145 prostate = test system: DU-145 prostate
OVCAR-8 ovarian = test system: OVCAR-8 ovarian
SF-295 CNS = test system: SF-295 CNS
NCI-H23 lung = test system: NCI-H23 lung
HCT-15 colon = test system: HCT-15 colon
HL-60(TB) leukemia = test system: HL-60(TB) leukemia
SK-MEL-2 melanoma = test system: SK-MEL-2 melanoma
NCI/ADR-RES ovarian = test system: NCI/ADR-RES ovarian
K-562 leukemia = test system: K-562 leukemia
MCF7 breast = test system: MCF7 breast
BT-549 breast = test system: BT-549 breast
SN12C renal = test system: SN12C renal
HS 578T breast = test system: HS 578T breast
SF-539 CNS = test system: SF-539 CNS
SF-268 CNS = test system: SF-268 CNS
HOP-62 NSCLC = test system: HOP-62 NSCLC
T-47D breast = test system: T-47D breast
HCT-116 colon = test system: HCT-116 colon
LOX IMVI melanoma = test system: LOX IMVI melanoma
SK-OV-3 ovarian = test system: SK-OV-3 ovarian
SK-MEL-28 melanoma = test system: SK-MEL-28 melanoma
MALME-3M melanoma = test system: MALME-3M melanoma
SNB-19 CNS = test system: SNB-19 CNS
RXF 393 renal = test system: RXF 393 renal
A498 renal = test system: A498 renal
OVCAR-4 ovarian = test system: OVCAR-4 ovarian
U251 CNS = test system: U251 CNS

## NS(=O)(=O)c1ccc(-n2nc(-c3ccc(Cl)cc3)cc2-c2cc(O)ccc2O)cc1
KM12 colon
  GI50: 13.4 µM
  TGI: 32.6 µM
MDA-MB-435
  GI50: 11.7 µM
  TGI: 28 µM
HOP-92 NSCLC
  GI50: 16 µM
  TGI: 38.9 µM
CCRF-CEM leukemia
  GI50: 3.14 µM
  TGI: 66.6 µM
UO-31 renal
  GI50: 26.5 µM
  TGI: > 100 µM
ACHN renal
  GI50: 13.4 µM
  TGI: 26.2 µM
SW-620 colon
  GI50: 23.4 µM
  TGI: 89.4 µM
HCC-2998 colon
  GI50: 17.2 µM
  TGI: 31.2 µM
MDA-MB-231 breast
  GI50: 3.32 µM
  TGI: 13.9 µM
EKVX NSCLC
  GI50: 22.6 µM
  TGI: 45.6 µM
PC-3 prostate
  GI50: 8.37 µM
  TGI: 23.8 µM
MOLT-4 leukemia
  GI50: 5.15 µM
  TGI: > 100 µM
A549 NSCLC
  GI50: 12.2 µM
  TGI: 30.4 µM
M14 melanoma
  GI50: 5.82 µM
  TGI: 17.4 µM
RPMI-8226 leukemia
  GI50: 3.15 µM
  TGI: 11.7 µM
UACC-257 melanoma
  GI50: 11.1 µM
  TGI: 25.6 µM
CAKI-1 renal
  GI50: 7.9 µM
  TGI: 22.8 µM
SK-MEL-5 melanoma
  GI50: 15.2 µM
  TGI: 32.3 µM
TK-10 renal
  GI50: 10.9 µM
  TGI: 26.1 µM
SR leukemia
  GI50: 3.85 µM
  TGI: > 100 µM
786-0 renal
  GI50: 5.18 µM
  TGI: 16.7 µM
NCI-H522 lung
  GI50: 2.58 µM
  TGI: 6.71 µM
IGROV1 ovarian
  GI50: 25.4 µM
  TGI: > 100 µM
OVCAR-5 ovarian
  GI50: 15.7 µM
  TGI: 31.1 µM
NCI-H226 lung
  GI50: 10.1 µM
  TGI: 24.5 µM
OVCAR-3 ovarian
  GI50: 4.34 µM
  TGI: 13.7 µM
UACC-62 melanoma
  GI50: 7.3 µM
  TGI: 19.2 µM
NCI-H460 lung
  GI50: 7.81 µM
  TGI: > 100 µM
DU-145 prostate
  GI50: 18.5 µM
  TGI: 35.8 µM
OVCAR-8 ovarian
  GI50: 13.3 µM
  TGI: 58.6 µM
SF-295 CNS
  GI50: 17.6 µM
  TGI: 33.5 µM
NCI-H23 lung
  GI50: 18.3 µM
  TGI: 34.6 µM
HCT-15 colon
  GI50: 6.28 µM
  TGI: 19.2 µM
HL-60(TB) leukemia
  GI50: 10 µM
  TGI: 69 µM
SK-MEL-2 melanoma
  GI50: 33.5 µM
  TGI: > 100 µM
NCI/ADR-RES ovarian
  GI50: 20.9 µM
  TGI: 47.6 µM
K-562 leukemia
  GI50: 4.9 µM
  TGI: 21.2 µM
MCF7 breast
  GI50: 5.97 µM
  TGI: > 100 µM
BT-549 breast
  GI50: 23.9 µM
  TGI: 58.3 µM
SN12C renal
  GI50: 8.11 µM
  TGI: 20.6 µM
HS 578T breast
  GI50: 34.2 µM
  TGI: 78.9 µM
SF-539 CNS
  GI50: 25.4 µM
  TGI: 46.7 µM
SF-268 CNS
  GI50: 10.5 µM
  TGI: 26.2 µM

## O=c1cc(-c2ccccc2)[nH]c2ccc(N3CCOCC3)cc12
KM12 colon
  TGI: 0.446 µM
HOP-62 NSCLC
  TGI: 28.2 µM
T-47D breast
  TGI: > 100 µM
MDA-MB-435
  TGI: > 100 µM
HOP-92 NSCLC
  TGI: 44.1 µM
UO-31 renal
  TGI: > 100 µM
ACHN renal
  TGI: > 91 µM
HCT-116 colon
  TGI: > 100 µM
SW-620 colon
  TGI: > 100 µM
HCC-2998 colon
  TGI: > 100 µM
MDA-MB-231 breast
  TGI: > 100 µM
EKVX NSCLC
  TGI: > 100 µM
PC-3 prostate
  TGI: > 100 µM
MOLT-4 leukemia
  TGI: > 100 µM
M14 melanoma
  TGI: > 79.2 µM
LOX IMVI melanoma
  TGI: > 100 µM
RPMI-8226 leukemia
  TGI: > 100 µM
UACC-257 melanoma
  TGI: > 100 µM
CAKI-1 renal
  TGI: > 89.2 µM
SK-OV-3 ovarian
  TGI: 22.4 µM
SK-MEL-5 melanoma
  TGI: 14.3 µM
TK-10 renal
  TGI: > 100 µM
786-0 renal
  TGI: 38.1 µM
NCI-H522 lung
  TGI: 0.404 µM
IGROV1 ovarian
  TGI: > 100 µM
OVCAR-5 ovarian
  TGI: > 100 µM
NCI-H226 lung
  TGI: 0.253 µM
OVCAR-3 ovarian
  TGI: 39.2 µM
SK-MEL-28 melanoma
  TGI: 44.7 µM
UACC-62 melanoma
  TGI: > 100 µM
MALME-3M melanoma
  TGI: > 100 µM
SNB-19 CNS
  TGI: > 87.5 µM
NCI-H460 lung
  TGI: > 100 µM
DU-145 prostate
  TGI: > 32.9 µM
OVCAR-8 ovarian
  TGI: > 100 µM
RXF 393 renal
  TGI: 46.5 µM
A498 renal
  TGI: 73.5 µM
OVCAR-4 ovarian
  TGI: > 100 µM
U251 CNS
  TGI: > 35.8 µM
SF-295 CNS
  TGI: 0.0773 µM
HCT-15 colon
  TGI: > 100 µM
SK-MEL-2 melanoma
  TGI: > 100 µM
NCI/ADR-RES ovarian
  TGI: > 100 µM
K-562 leukemia
  TGI: > 100 µM
MCF7 breast
  TGI: > 93.5 µM
BT-549 breast
  TGI: > 100 µM
SN12C renal
  TGI: > 95.3 µM
HS 578T breast
  TGI: > 100 µM
SF-539 CNS
  TGI: 0.615 µM
SF-268 CNS
  TGI: 15.8 µM
